Experimental data from US10280184B2, “Heterocyclic kinase inhibitors” (AbbVie Inc., priority 2014, dated 2019).

These compounds were tested against BTK (Homo sapiens (Human), UniProt Q06187) (assay: In vitro BTK kinase activity measured by trFRET). Details: recombinant human catalytic domain (aa 393-659), 0.01 mM ATP; read-out: Btk enzyme IC50.
Type: biochemical
Description: In Vitro BTK Kinase Activity Measured by Time-Resolved Fluorescence Resonance Energy Transfer (trFRET)
The in-house BTK corresponds to recombinant human catalytic domain (aa 393-659), which was expressed in SF9 cells with an N-terminal his tag and purified by immobilized metal affinity chromatography. BTK was mixed with peptide substrate (biotin-TYR1, Sequence: Biotin-(Ahx)-GAEEEIYAAFFA-COOH, 0.4 μM final) at varying inhibitor concentrations in reaction buffer: 50 mM MOPSO pH 6.5, 10 mM MgCl2, 2 mM MnCl2, 2.5 mM DTT, 0.01% BSA, 0.1 mM Na3VO4 and 0.01 mM ATP. After about 60 min incubation at rt, the reaction was quenched by addition of EDTA (final concentration: 100 mM) and developed by addition of detection reagents (final approximate concentrations: 30 mM HEPES pH 7.0, 0.06% BSA, 0.006% Tween-20, 0.24 M KF, 80 ng/mL PT66K (europium labeled anti-phosphotyrosine antibody cat #61T66KLB Cisbio, Bedford, Mass.) and 0.6 μg/mL SAXL (Phycolink streptavidin-allophycocyanin acceptor, cat #PJ25S, Prozyme, San Leandro, Calif.). The developed reaction was incubated in the dark for about 60 min at rt, then read via a time-resolved fluorescence detector (Rubystar, BMG) using a 337 nm laser for excitation and monitoring emission wavelength at 665 nm. Within the linear range of the assay, the observed signal at 665 nm was directly related to phosphorylated product and can be used to calculate the IC50 values.

Sequence of BTK (Q06187 393-659): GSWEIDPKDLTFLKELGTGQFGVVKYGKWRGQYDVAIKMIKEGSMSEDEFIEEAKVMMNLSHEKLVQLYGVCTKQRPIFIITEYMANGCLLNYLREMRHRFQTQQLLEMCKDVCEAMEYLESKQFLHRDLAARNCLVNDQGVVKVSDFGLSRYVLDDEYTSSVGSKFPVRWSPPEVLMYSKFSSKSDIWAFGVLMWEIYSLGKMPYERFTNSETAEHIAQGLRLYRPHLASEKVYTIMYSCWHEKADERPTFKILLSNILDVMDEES

IC50 [nM] | Structure (SMILES)
1000 to 50000 | C=CC(=O)N1CCC(c2cn3ncnc3c(Nc3ccn(C)n3)n2)C1 (centres unmarked) [F.1.23, 1-(3-(8-((1-methyl-1H-pyrazol-3-yl)amino)-[1,2,4]triazolo[1,5-a]pyrazin-6-yl)pyrrolidin-1-yl)prop-2-en-1-one]
100 to 1000 | C=CC(=O)N1CCC(c2cn3ncnc3c(Nc3ccc(N4CCOCC4)nc3)n2)C1 (centres unmarked) [F.1.19, 1-(3-(8-((6-morpholinopyridin-3-yl)amino)-[1,2,4]triazolo[1,5-a]pyrazin-6-yl)pyrrolidin-1-yl)prop-2-en-1-one]
1000 to 50000 | C=CC(=O)N1CCC(c2cn3ncnc3c(NC)n2)C1 (centres unmarked) [F.1.16, 1-(3-(8-(methylamino)-[1,2,4]triazolo[1,5-a]pyrazin-6-yl)pyrrolidin-1-yl)prop-2-en-1-one]
1000 to 50000 | C=CC(=O)N1CCC[C@@H](c2cc(Nc3cc4n(n3)CCOC4)c3ncnn3c2)C1 (single isomer, unassigned) [Example F1.24]
< 100 | C=CC(=O)N1CCC(c2cc(Nc3ccn(C)n3)c3ncnn3c2)C1 (centres unmarked) [Example 1, 1-(3-(8-((1-methyl-1H-pyrazol-3-yl)amino)-[1,2,4]triazolo[1,5-a]pyridin-6-yl)pyrrolidin-1-yl)prop-2-en-1-one]
< 100 | C=CC(=O)N1CC[C@@H](c2cc(Nc3cc4n(n3)CCN(C)C4)c3ncnn3c2)C1 [F.1.39]
< 100 | C=CC(=O)N1CCC[C@H](c2cc(Nc3cc4n(n3)CCOC4)c3ncnn3c2)C1 (single isomer, unassigned) [Example 5]
< 100 | C=CC(=O)N1CCCC(c2cn3ncnc3c(Nc3ccc4c(c3)NC(=O)CCC4)n2)C1 (centres unmarked) [F.1.4, 8-((6-(1-acryloylpiperidin-3-yl)-[1,2,4]triazolo[1,5-a]pyrazin-8-yl)amino)-4,5-dihydro-1H-benzo[b]azepin-2(3H)-one]
100 to 1000 | N#CN1CCCC(c2cc(Nc3cc4n(n3)CCOC4)c3ncnn3c2)C1 (centres unmarked) [I.1.3, 3-(8-((6,7-dihydro-4H-pyrazolo[5,1-c][1,4]oxazin-2-yl)amino)-[1,2,4]triazolo[1,5-a]pyridin-6-yl)piperidine-1-carbonitrile]
100 to 1000 | C=CC(=O)N[C@H]1CC[C@@H](c2cc(Nc3ccc(N4CCOCC4)cn3)c3ncnn3c2)C1 (single isomer, unassigned) [Example 9 (1S,3R)]
100 to 1000 | C=CC(=O)N1CCC(c2cn3ncnc3c(Nc3ccc(OC)c(OC)c3)n2)C1 (centres unmarked) [F.1.8]
< 100 | C=CC(=O)N[C@@H]1CC[C@H](c2cc(Nc3ccn(C)n3)c3ncnn3c2)C1 (single isomer, unassigned) [Example 7]
< 100 | C=CC(=O)N1CC[C@H](c2cc(Nc3cc4n(n3)CCOC4)c3ncnn3c2)C1 [Example 4, 1-{(R)-3-[8-(6,7-Dihydro-4H-pyrazolo[5,1-c][1,4]oxazin-2-ylamino)-[1,2,4]triazolo[1,5-a]pyridin-6-yl]-pyrrolidin-1-yl}-propenone]
100 to 1000 | C=CC(=O)N[C@H]1CC[C@@H](c2cc(Nc3ccn(C)n3)c3ncnn3c2)C1 [Example F1.34]
< 100 | C=CC(=O)N[C@@H]1CCC[C@H](c2cc(Nc3ccn(C)n3)c3ncnn3c2)C1 [Example F1.35]
1000 to 50000 | C=CC(=O)N1CCCC(c2cc(Nc3nc(C(C)C)no3)c3ncnn3c2)C1 (centres unmarked) [Example F1.31, 1-(3-(8-((3-isopropyl-1,2,4-oxadiazol-5-yl)amino)-[1,2,4]triazolo[1,5-a]pyridin-6-yl)piperidin-1-yl)prop-2-en-1-one]
1000 to 50000 | C=CC(=O)N1CC[C@@H](c2cc(Nc3cc4n(n3)CCOC4)c3ncnn3c2)C1 [Example F1.33, (S)-1-(3-(8-((6,7-dihydro-4H-pyrazolo[5,1-c][1,4]oxazin-2-yl)amino)-[1,2,4]triazolo[1,5-a]pyridin-6-yl)pyrrolidin-1-yl)prop-2-en-1-one]
100 to 1000 | C=CC(=O)N1CCCC(c2cc(Nc3ccn(C)n3)c3ncnn3c2)C1 (centres unmarked) [F.1.21, 1-(3-(8-((1-methyl-1H-pyrazol-3-yl)amino)-[1,2,4]triazolo[1,5-a]pyridin-6-yl)piperidin-1-yl)prop-2-en-1-one]

IC50 [nM] | Structure (SMILES)
< 100 | C=CS(=O)(=O)N1CC[C@H](c2cn3ncnc3c(Nc3ccc(OC)c(OC)c3)n2)C1 (single isomer, unassigned) [H.1]
1000 to 50000 | C=CC(=O)NCc1cccc(-c2cn3ncnc3c(Nc3ccc(N4CCOCC4)cc3)n2)c1 [C.1.1]
< 100 | C=CC(=O)N1CCC(c2cn3ncnc3c(Nc3ccc4c(c3)NC(=O)CCC4)n2)C1 (centres unmarked) [F.1, 8-((6-(1-acryloylpyrrolidin-3-yl)-[1,2,4]triazolo[1,5-a]pyrazin-8-yl)amino)-4,5-dihydro-1H-benzo[b]azepin-2(3H)-one]
< 100 | C=CC(=O)N1CCC(c2cc(Nc3cc4n(n3)CCOC4)c3nccn3n2)C1 (centres unmarked) [F.1.41, 1-(3-(8-((6,7-dihydro-4H-pyrazolo[5,1-c][1,4]oxazin-2-yl)amino)imidazo[1,2-b]pyridazin-6-yl)pyrrolidin-1-yl)prop-2-en-1-one]
100 to 1000 | C=CC(=O)NCc1cccc(-c2cn3ncnc3c(NC34CC(C3)C4)n2)c1 [F.1.1]
100 to 1000 | Cn1ccc(Nc2cc(C3CCCN(C#N)C3)cn3ncnc23)n1 (centres unmarked) [I.1.1, 3-(8-((1-methyl-1H-pyrazol-3-yl)amino)-[1,2,4]triazolo[1,5-a]pyridin-6-yl)piperidine-1-carbonitrile]
1000 to 50000 | C=CC(=O)Nc1ccccc1-c1cn2ncnc2c(NC23CC(C2)C3)n1 [F.1.3]
1000 to 50000 | C=CC(=O)N1CCCC(c2cc(Nc3nc(C)no3)c3ncnn3c2)C1 (centres unmarked) [Example F1.32, 1-(3-(8-((3-methyl-1,2,4-oxadiazol-5-yl)amino)-[1,2,4]triazolo[1,5-a]pyridin-6-yl)piperidin-1-yl)prop-2-en-1-one]
< 100 | C=CC(=O)N1CC[C@H](c2cn3ncnc3c(Nc3cnn(C)c3)n2)C1 (single isomer, unassigned) [Example 6]
100 to 1000 | Cn1cc(Nc2nc(C3CCN(C#N)C3)cn3ncnc23)cn1 (centres unmarked) [I.1.2]
100 to 1000 | C=CC(=O)N1CCC(c2cn3ncnc3c(Nc3ccc4c(c3)NC(=O)CC4)n2)C1 (centres unmarked) [F.1.13, 7-((6-(1-acryloylpyrrolidin-3-yl)-[1,2,4]triazolo[1,5-a]pyrazin-8-yl)amino)-3,4-dihydroquinolin-2(1H)-one]
100 to 1000 | C=CC(=O)N[C@H]1CCC[C@H](c2cc(Nc3ccn(C)n3)c3ncnn3c2)C1 [Example F1.36]
< 100 | C=CC(=O)N1CC[C@H](c2cc(Nc3ccn(C)n3)c3ncnn3c2)C1 [F.1.38, (R)-1-(3-(8-((1-methyl-1H-pyrazol-3-yl)amino)-[1,2,4]triazolo[1,5-a]pyridin-6-yl)pyrrolidin-1-yl)prop-2-en-1-one]
< 100 | C=CC(=O)Nc1cccc(-c2cn3ncnc3c(Nc3ccc4c(c3)NC(=O)CCC4)n2)c1 [F.1.5, N-(3-(8-((2-oxo-2,3,4,5-tetrahydro-1H-benzo[b]azepin-8-yl)amino)-[1,2,4]triazolo[1,5-a]pyrazin-6-yl)phenyl)acrylamide]
1000 to 50000 | C=CC(=O)N1CC[C@@H](c2cn3ncnc3c(Nc3ccc(OC)c(OC)c3)n2)C1 [F.1.112]
100 to 1000 | C=CC(=O)Nc1cccc(-c2cn3ncnc3c(NC34CC(C3)C4)n2)c1 [F.1.2]
100 to 1000 | C=CC(=O)N1CCC(c2cc(Nc3ccc4c(c3)NC(=O)CCC4)c3ncnn3c2)C1 (centres unmarked) [F.1.15, 8-((6-(1-acryloylpyrrolidin-3-yl)-[1,2,4]triazolo[1,5-a]pyridin-8-yl)amino)-4,5-dihydro-1H-benzo[b]azepin-2(3H)-one]
